{
  "source": "paper PMC11272821",
  "about": "“Mechanistic safety assessment via multi-omic characterisation of systemic pathway perturbations following in vivo MAT2A inhibition” (Archives of Toxicology, 2024)",
  "key": {"LogD (pH 7.4)": {"assay": "LogD (pH 7.4)", "type": "physicochemical"}, "[1]": {"assay": "7-day-rat investigative safety study (in-life, histopathology, clinical chemistry)", "type": "in vivo", "details": "for liver microscopic examination, hepatocyte glycogen stores: 30 mg/kg, compared with vehicles", "method": "All in vivo experimental procedures were conducted in accordance with United Kingdom legislation (Animals (Scientific Procedures) Act, 1986) and were compliant with the ARRIVE guidelines. 8–10 week old male (210–230 g) Crl:WI Han Wistar rats (Charles River Laboratories Ltd, UK) were acclimatised to the facility for 10 days and then randomised to groups based on bodyweight.\nFollowing euthanasia and blood sample collections, animals were necropsied and subjected to gross examination. Samples of liver, brain and heart were collected and fixed in 10% neutral buffered formalin at room temperature for 48 h, followed by routine histology processing (Leica Biosystems) to paraffin embedded wax blocks. Paraffin embedded tissues were cut into […] sections using a microtome (Leica Biosystems) and mounted on glass microscope slides. Tissue sections were stained with hematoxylin and eosin and coverslipped. Stained slides were digitally scanned using an AT2 Scanscope pathology slide scanner (Leica Biosystems) and whole slide images were reviewed by a veterinary pathologist.\nA whole blood sample (2.0 mL) was collected into lithium heparin from the caudal vena cava under isoflurane/oxygen anaesthesia immediately prior to euthanasia. Blood samples were centrifuged for 10 min at 4 °C to separate the plasma fraction. Plasma samples were divided into 0.5 mL aliquots and frozen at […] for storage prior to chemistry analysis. Plasma chemistry analysis was performed by Charles River Laboratories (Edinburgh, Scotland) following standard procedures."}, "[2]": {"assay": "Liver mass spectrometry imaging", "type": "in vivo, rat", "method": "Liver MSI. Tissue samples were snap frozen in dry ice cooled isopentane. Frozen samples were embedded in a HPMA/PVP hydrogel as previously detailed (Dannhorn et al. 2020). Tissue sectioning was performed using a CM1950 cryostat microtome (Leica Biosystems, Nussloch, Germany) at a section thickness of 10 µm. The tissue sections for desorption electrospray ionisation MSI (DESI-MSI), and matrix assisted laser desorption ionisation (MALDI-MSI) were immediately thaw mounted onto Superfrost or indium tin oxide coated microscope slides respectively. Tissue sections for positive ion mode DESI-MSI were washed with xylene for 1 minute to reduce ion suppression of metabolites of interest.\nMSI analysis of most metabolites was performed by DESI-MSI and analysis of glutathione and glutathione disulphide was performed with MALDI-MSI. DESI-MSI analysis was carried out using a Q-Exactive mass spectrometer (Thermo Scientific, Bremen, Germany) equipped with an automated 2D-DESI ion source (Prosolia Inc., Indianapolis, IN, USA). Experiments were carried out in both positive and negative mode with a mass range up to a m/z of 1000, with a nominal mass resolution of 70,000. The injection time was fixed to 150 ms resulting in a scan rate of 3.8 pixel/s. […]"}, "86 targets": {"test_system": "86 targets", "assay": "Secondary pharmacology profiling against 86 targets (Eurofins)", "details": "BID dosing of 3, 10 or 30 mg/kg for 7 days", "method": "(§1) Secondary pharmacology assays were performed at Eurofins using standard experimental techniques against a total of 86 targets across a broad pharmacological space. Assay details along with experimental protocols are described at https://www.eurofinsdiscoveryservices.com. […] Assays measuring substrate turnover or phosphorylation by isolated proteins were used for kinase and enzyme targets, allowing direct determination of the mode of action of the compounds. […] Assays were run in eight points concentration response mode with half log dilutions and IC50, EC50 or Ki (Cheng and Prusoff [1973]) values determined."}, "Aurora A kinase": {"target": "T1, Aurora A kinase (Homo sapiens, UniProt O14965)", "T1 construct": "Eurofins", "T1 sequence (O14965 whole entry)": "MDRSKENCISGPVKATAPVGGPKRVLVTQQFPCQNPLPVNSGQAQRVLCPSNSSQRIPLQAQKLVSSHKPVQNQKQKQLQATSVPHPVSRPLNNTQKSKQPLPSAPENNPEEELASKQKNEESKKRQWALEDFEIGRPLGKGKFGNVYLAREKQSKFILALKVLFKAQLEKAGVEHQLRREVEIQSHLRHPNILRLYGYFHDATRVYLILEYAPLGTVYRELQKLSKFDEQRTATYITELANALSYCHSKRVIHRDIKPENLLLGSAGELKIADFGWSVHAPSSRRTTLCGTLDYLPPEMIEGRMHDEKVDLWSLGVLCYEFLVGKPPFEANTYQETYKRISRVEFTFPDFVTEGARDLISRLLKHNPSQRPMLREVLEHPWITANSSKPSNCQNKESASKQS", "assay": "Enzyme assay", "type": "biochemical", "method": "as §1"}, "[3]": {"target": "T2, Fibroblast growth factor receptor 1 kinase (FGFR1 kinase) (Homo sapiens, UniProt P11362)", "T2 construct": "Eurofins", "T2 sequence (P11362 22-822)": "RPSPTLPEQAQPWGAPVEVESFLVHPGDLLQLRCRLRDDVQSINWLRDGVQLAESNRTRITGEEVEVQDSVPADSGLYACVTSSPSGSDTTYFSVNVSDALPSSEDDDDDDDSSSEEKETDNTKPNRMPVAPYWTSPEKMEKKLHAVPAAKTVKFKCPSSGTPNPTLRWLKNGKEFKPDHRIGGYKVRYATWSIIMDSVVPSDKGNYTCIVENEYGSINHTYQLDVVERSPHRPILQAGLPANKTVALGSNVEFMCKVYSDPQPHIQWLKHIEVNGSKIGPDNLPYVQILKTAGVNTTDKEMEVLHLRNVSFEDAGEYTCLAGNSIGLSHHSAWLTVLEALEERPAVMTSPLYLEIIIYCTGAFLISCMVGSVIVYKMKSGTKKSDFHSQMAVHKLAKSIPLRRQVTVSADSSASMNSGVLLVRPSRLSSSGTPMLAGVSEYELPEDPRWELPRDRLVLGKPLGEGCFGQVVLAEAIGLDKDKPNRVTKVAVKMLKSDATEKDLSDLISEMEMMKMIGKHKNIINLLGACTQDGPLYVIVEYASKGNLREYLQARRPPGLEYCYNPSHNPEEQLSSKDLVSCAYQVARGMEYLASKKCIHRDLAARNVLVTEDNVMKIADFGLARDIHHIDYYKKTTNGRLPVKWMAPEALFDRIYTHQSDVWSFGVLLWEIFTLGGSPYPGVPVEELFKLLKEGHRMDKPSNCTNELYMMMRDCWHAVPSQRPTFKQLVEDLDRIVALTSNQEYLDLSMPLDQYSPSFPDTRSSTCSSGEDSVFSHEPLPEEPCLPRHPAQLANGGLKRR", "assay": "Enzyme assay", "type": "biochemical", "method": "as §1"}, "[4]": {"target": "T3, Glycogen synthase kinase-3 β (Homo sapiens, UniProt P49841)", "T3 construct": "Eurofins", "T3 sequence (P49841 whole entry)": "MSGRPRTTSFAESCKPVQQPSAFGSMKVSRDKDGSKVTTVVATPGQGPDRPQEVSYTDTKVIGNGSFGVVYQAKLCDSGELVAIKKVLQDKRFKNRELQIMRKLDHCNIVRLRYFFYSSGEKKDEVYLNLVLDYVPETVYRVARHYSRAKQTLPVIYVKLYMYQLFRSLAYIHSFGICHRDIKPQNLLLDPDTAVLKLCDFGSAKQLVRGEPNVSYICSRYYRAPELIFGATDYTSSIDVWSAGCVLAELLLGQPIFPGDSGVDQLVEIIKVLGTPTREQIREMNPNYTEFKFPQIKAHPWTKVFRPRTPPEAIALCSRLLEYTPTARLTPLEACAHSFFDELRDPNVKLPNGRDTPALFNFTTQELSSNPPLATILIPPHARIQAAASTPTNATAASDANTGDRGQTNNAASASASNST", "assay": "Enzyme assay", "type": "biochemical", "method": "as §1"}, "[5]": {"target": "T4, Kinase insert domain receptor kinase (KDR) (Homo sapiens, UniProt P35968)", "T4 construct": "Eurofins", "assay": "Enzyme assay", "type": "biochemical", "method": "as §1"}, "[6]": {"target": "T5, Neurotrophic receptor kinase 1 (NRK1) (Homo sapiens, UniProt P04629)", "T5 construct": "Eurofins", "assay": "Enzyme assay", "type": "biochemical", "method": "as §1"}, "[7]": {"target": "T6, Phosphodiesterase PDE10A2 (Homo sapiens, UniProt Q9Y233)", "T6 construct": "Eurofins", "T6 sequence (Q9Y233 267-1055 limits assumed)": "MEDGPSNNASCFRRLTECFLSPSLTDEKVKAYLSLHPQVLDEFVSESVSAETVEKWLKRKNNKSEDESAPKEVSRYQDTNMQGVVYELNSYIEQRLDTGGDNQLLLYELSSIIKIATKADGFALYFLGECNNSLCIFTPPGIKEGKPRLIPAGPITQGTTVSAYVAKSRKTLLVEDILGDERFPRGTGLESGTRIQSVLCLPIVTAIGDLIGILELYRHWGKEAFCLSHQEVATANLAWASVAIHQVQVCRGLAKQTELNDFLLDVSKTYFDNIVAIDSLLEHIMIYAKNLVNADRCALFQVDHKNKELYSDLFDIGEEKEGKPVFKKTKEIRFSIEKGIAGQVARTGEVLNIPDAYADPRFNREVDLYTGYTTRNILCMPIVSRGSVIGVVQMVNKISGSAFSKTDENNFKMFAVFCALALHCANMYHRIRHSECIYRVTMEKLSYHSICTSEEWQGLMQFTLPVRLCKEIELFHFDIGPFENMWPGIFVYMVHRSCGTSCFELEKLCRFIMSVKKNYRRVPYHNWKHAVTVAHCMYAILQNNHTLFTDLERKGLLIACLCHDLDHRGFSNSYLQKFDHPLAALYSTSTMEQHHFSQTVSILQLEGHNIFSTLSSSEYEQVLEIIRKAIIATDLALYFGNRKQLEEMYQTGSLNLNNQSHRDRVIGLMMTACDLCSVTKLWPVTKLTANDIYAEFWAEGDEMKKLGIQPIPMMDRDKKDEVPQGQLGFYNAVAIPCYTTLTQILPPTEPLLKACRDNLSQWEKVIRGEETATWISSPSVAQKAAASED", "assay": "Enzyme assay", "type": "biochemical", "method": "as §1"}, "Phosphodiesterase PDE4D2": {"target": "T7, Phosphodiesterase PDE4D2 (Homo sapiens, UniProt Q08499)", "T7 construct": "Eurofins", "assay": "Enzyme assay", "type": "biochemical", "method": "as §1"}, "[8]": {"target": "T8, Prostaglandin-endoperoxide synthase 2 (COX2) (Homo sapiens, UniProt P35354)", "T8 construct": "Eurofins", "assay": "Enzyme assay", "type": "biochemical", "method": "as §1"}, "Thromboxane A2 synthase": {"target": "T9, Thromboxane A2 synthase (Homo sapiens, UniProt P24557)", "T9 construct": "Eurofins", "T9 sequence (P24557 whole entry)": "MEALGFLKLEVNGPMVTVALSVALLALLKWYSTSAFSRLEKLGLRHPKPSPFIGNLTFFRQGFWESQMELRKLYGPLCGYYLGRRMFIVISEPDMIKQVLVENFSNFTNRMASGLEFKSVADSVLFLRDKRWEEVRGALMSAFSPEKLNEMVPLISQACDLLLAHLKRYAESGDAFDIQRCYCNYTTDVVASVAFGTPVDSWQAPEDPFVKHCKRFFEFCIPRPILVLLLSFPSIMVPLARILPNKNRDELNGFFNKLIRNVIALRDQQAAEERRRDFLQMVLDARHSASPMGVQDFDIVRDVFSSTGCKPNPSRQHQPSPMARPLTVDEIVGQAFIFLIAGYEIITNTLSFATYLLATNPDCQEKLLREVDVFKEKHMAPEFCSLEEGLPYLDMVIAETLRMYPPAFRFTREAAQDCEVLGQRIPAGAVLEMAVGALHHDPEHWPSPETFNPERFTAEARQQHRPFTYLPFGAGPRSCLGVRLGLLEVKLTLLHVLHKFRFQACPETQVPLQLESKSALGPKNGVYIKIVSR", "assay": "Enzyme assay", "type": "biochemical", "method": "as §1"}, "Adenosine Transporter": {"target": "T10, Adenosine Transporter (Homo sapiens, UniProt Q99808)", "T10 construct": "Eurofins", "T10 sequence (Q99808 2-456 limits assumed)": "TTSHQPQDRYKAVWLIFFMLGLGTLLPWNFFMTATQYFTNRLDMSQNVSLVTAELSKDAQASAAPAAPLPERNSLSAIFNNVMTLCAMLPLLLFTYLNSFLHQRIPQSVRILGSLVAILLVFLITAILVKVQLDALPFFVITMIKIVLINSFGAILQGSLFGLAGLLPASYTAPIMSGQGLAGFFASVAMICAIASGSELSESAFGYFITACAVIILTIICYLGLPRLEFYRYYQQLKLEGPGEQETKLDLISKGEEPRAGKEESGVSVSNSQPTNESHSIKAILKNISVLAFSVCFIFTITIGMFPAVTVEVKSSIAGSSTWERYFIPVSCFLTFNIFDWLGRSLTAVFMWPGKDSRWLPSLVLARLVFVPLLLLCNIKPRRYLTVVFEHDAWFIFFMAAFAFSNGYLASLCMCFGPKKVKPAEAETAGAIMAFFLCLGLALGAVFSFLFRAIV", "assay": "Functional assay", "type": "cell-based", "method": "as §1"}, "hERG": {"target": "hERG (Homo sapiens, UniProt Q12809)", "sequence (Q12809 whole entry)": "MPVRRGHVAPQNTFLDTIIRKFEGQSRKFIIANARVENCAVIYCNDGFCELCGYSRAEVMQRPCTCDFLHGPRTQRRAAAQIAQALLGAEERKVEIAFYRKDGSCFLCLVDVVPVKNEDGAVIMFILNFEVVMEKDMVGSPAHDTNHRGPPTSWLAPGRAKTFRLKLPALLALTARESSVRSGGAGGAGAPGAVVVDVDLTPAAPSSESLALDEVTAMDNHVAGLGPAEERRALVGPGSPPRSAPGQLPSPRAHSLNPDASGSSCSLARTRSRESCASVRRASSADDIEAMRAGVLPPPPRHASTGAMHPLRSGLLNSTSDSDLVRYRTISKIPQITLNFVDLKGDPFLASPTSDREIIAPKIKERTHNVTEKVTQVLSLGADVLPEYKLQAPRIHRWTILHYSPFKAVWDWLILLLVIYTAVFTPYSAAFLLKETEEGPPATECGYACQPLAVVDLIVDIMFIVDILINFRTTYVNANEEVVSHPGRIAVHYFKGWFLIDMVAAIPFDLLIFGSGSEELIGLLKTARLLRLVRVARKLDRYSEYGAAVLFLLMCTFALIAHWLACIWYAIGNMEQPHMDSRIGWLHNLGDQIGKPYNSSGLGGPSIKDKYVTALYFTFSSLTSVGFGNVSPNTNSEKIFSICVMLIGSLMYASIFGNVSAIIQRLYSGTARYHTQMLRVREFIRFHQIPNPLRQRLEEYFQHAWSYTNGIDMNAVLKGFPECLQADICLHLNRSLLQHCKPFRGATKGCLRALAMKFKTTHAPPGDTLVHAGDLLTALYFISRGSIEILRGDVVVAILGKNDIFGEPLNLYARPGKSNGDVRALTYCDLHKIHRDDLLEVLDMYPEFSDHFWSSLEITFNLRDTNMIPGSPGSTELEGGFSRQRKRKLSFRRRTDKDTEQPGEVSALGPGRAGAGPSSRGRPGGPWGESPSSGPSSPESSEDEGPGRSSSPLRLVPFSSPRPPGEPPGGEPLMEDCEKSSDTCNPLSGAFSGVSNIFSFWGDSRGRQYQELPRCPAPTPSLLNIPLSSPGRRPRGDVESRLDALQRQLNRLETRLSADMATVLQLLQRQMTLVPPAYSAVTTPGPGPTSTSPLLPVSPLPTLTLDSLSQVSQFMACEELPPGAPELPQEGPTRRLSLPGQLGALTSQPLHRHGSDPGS", "assay": "hERG safety assay", "type": "cell-based", "details": "Full curve", "from_the_text": "(§2) Full curve IC50 (µM) for hERG (human ether-a-go-go-related gene) and the cardiac ion channel panel (sodium and potassium ion channels; Nav1.5, IKs, Kv4.3), along with the L-type Calcium channel (Cav-1.2 Ver; verapamil, DIL; diltiazem), HepG2 C3A 3D spheroids, HepG2 C3A (2D cultures in glucose or galactose media), and THP1 cytotoxicity."}, "HepG2 Spheroid": {"test_system": "HepG2 Spheroid", "assay": "HepG2 C3A 3D spheroid cytotoxicity", "type": "cell-based", "details": "3D spheroids; read-out: HepG2 Spheroid Cytotox IC50", "from_the_text": "as §2"}},
  "data": [
    {"smiles": "Cn1cc2cc(-c3cc4[nH]nc(C5CC5)c4n(-c4ccc(OC(F)F)cc4)c3=O)ccc2n1", "note": "[AZ’9567]", "values": [
      {"measurement": "LogD (pH 7.4)", "setting": "LogD (pH 7.4)", "result": 3.4},
      {"measurement": "liver microscopic examination, hepatocyte glycogen stores", "setting": "[1]; listed as AZMAT2Ai", "result": "decrease in glycogen stores"},
      {"measurement": "liver microscopic examination, hepatocyte glycogen stores", "setting": "[1]; listed as MAT2Ai", "result": "minimal decrease in hepatocyte glycogen stores"},
      {"measurement": "clinical observations during the in-life phase", "setting": "[1]; 3, 10, 30 mg/kg BID, 7 days", "result": "no clinical observations"},
      {"measurement": "liver steatosis, histopathology", "setting": "[1]; 8-days study", "result": "no histopathological evidence of liver steatosis"},
      {"measurement": "food consumption and body weight", "setting": "[1]; all dose groups", "result": "significant drop"},
      {"measurement": "liver pathology", "setting": "[1]; any dose group", "result": "No significant abnormalities detected"},
      {"measurement": "bone marrow histopathology", "setting": "[1]; data not shown", "result": "bone marrow toxicity affecting mostly the erythroid compartment"},
      {"measurement": "pancreas histopathology", "setting": "[1]; loss of both exocrine and endocrine parenchyma, data not shown", "result": "dose-dependent pancreatic necrosis"},
      {"measurement": "histopathological examination of the heart or brain", "setting": "[1]; rat, in vivo", "result": "No microscopic abnormalities"},
      {"measurement": "plasma chemistry: markers of liver injury or cholesterol levels", "setting": "[1]; vehicle vs treated animals", "result": "no differences"},
      {"measurement": "distribution of the compound in liver sections", "setting": "[2]", "result": "mostly homogenously across the liver with hotspots of increased abundance in the blood vessels"},
      {"measurement": "cover of secondary pharmacology targets by plasma free Cmax in rats", "setting": "86 targets", "result": "none of these targets was covered"},
      {"measurement": "IC50", "setting": "Aurora A kinase", "result": 84.1, "unit": "µM"},
      {"measurement": "IC50", "setting": "[3]", "result": 49.9, "unit": "µM"},
      {"measurement": "IC50", "setting": "[4]", "result": 1.6, "unit": "µM"},
      {"measurement": "IC50", "setting": "[5]", "result": 9.5, "unit": "µM"},
      {"measurement": "IC50", "setting": "[6]", "result": 38.3, "unit": "µM"},
      {"measurement": "IC50", "setting": "[7]", "result": 10.8, "unit": "µM"},
      {"measurement": "IC50", "setting": "Phosphodiesterase PDE4D2", "result": 4.1, "unit": "µM"},
      {"measurement": "IC50", "setting": "[8]", "result": 44, "unit": "µM"},
      {"measurement": "IC50", "setting": "Thromboxane A2 synthase", "result": 9, "unit": "µM"},
      {"measurement": "Pharmacological mode of action", "setting": "Adenosine Transporter", "result": "Antagonist"},
      {"measurement": "IC50", "setting": "hERG", "result": 33.1, "unit": "µM"},
      {"measurement": "IC50", "setting": "HepG2 Spheroid", "result": 58.7, "unit": "µM"}
    ]}
  ]
}
